Experimental data published in US10857112B2, “Small molecule inhibitors of RNA binding motif (RBM) proteins for the treatment of acute cellular injury” (University of Pittsburgh—Of the Commonwealth System of …, priority 2012, dated 2020).

Tests used:
[1] = system: primary rat cortical neurons; experiment: Glutamate excitotoxic injury, neuron viability; type: cell-based; conditions: 5 μM glutamate 5 minute; post-injury 125 μM; 24 hours
Protocol: Drugs (AQ2S and MK801) were dissolved in 100% DMSO (vehicle). Rat cortical neurons were isolated from E17 embryos, and seeded onto 96-well plates at a density of 1.5×10^5/well. At day-in-vitro 8 (D.I.V. 8) culture maintenance media was replaced with treatment media (Modified Eagles Buffered Solution) without or with 5 μM Glutamate. After a 5 minute injury in treatment solution, cells were returned to normal culture maintenance media conditions (Neurobasal/B27 supplement) with either: 1) DMSO, 2) 125 μM AQ2S or 3) MK801; MK801 is an NMDA receptor channel blocker and classic neuroprotectant in this injury paradigm. Neuron viability was measured 24 hours post-injury by incubation with CellTiter Blue reagent (PROMEGA) for 2 hours. CellTiter Blue is metabolized into a fluorescent reagent only in living cells. The level of fluorescence (expressed as relative fluorescent units; RFU) was measured on a plate reader (PROMEGA).
Primary rat cortical neurons were grown onto 96-well plates. Neurons were treated with or without 5 μM glutamate. Cells were returned to regular growth media with DMSO, 125 μM AQ2S, or MK801 and viability measured 24 hours later (expressed as relative fluorescent units; RFU). […] Injury (n=7), Glut+AQ2S (n=7) and Glut+MK-801 (n=6). White bar indicated absence of glutamate injury. […] Data were analyzed by ANOVA (p<0.0001); Fisher LSD post-hoc test. * indicates p<0.05. […]

[2] = system: caspase-8; experiment: STS-induced caspase-8 activity in neurons; type: cell-based, rat; conditions: 150 nM STS 24 hours; co-treatment 75 μM
[3] = system: primary rat cortical neurons; experiment: STS injury, neuronal viability and cytotoxicity
Protocol: At D.I.V. 11, ½ media was collected (conditioned media) and mixed with an equal volume fresh neurobasal media (to make the 24 hour treatment media). STS was prepared at the desired concentration in treatment media, with or without experimental drugs (AQ2S or LY294002). The remaining growth maintenance media was replaced with 100 μL, of treatment media per well of a 96-well plate (or 2 mL for a six-well plate) for 24 hours.
The LDH Cytotoxicity Assay Kit II was purchased from Abcam (Cambridge, Mass., USA). Neurons were cultured in 96-well format and subjected to STS injury ±AQ2S for 24 hours (in 100 μL, total media volume). At 23 hours maximum LDH release (positive control) was prepared by adding 10 μL, cell lysis reagent directly to a few non-injured wells (i.e., no STS or AQ2S). At the end of the 24 hour injury period, 80 μL, of media was transferred to a new 96-well plate. Plates were spun at ˜500 g for 5 minutes. 10 μL, of cell culture treatment media was added to a new black-walled plate and advanced WST detection reagent added. The mix was incubated for ˜15 minutes and absorbance measured (OD 450 nm). Fresh culture media was used as a negative control. Cytotoxicity was calculated using the standard formula: cytotoxicity %=(sample LDH−negative-control LDH)/(maximum LDH release−negative-control LDH)×100.

[4] = system: C57BL6 mice, severe CCI brain injury; experiment: Controlled cortical impact (TBI) injury, hippocampal volume; type: in vivo
Protocol: AQ2S was prepared in 2% DMSO in PBS (i.e. vehicle). C57BL6 mice were administered a severe CCI brain injury. Severe brain trauma was induced by a pneumatic impactor device that delivers a defined cortical injury (impact depth, 1.6 mm; impact velocity, 5 m/s). 15 minutes after injury animals were given a 5 μL intracerebroventricular injection with either vehicle (n=7) or 500 μM AQ2S (n=7). The 5 μL injection volume was delivered at a rate of 0.5 μL/minute. […] A second vehicle or AQ2S injection was administered 24 hours after injury. […] 3 days after injury animals were sacrificed, perfused with a fixative, brains sectioned, and stained with hematoxylin and eosin (H&E). Images were captured using a light microscope and camera.
Mice were given surgical/treatment protocols and hippocampal tissue analyzed 3 days later. […] (D) Left (injured) and right (non-injured) hippocampal volumes were quantified for each mouse; sham (n=5), vehicle CCI injury (n=7), and AQ2S CCI injury (n=7). FIG. 23D show left hippocampal volumes (expressed as % of uninjured right hippocampus).

[5] = system: primary rat cortical neurons; experiment: Ischemia (OGD) injury, neuron viability; type: cell-based; conditions: 1 hour OGD; 75 μM during and after injury; 24 hours
Protocol: AQ2S was dissolved in 100% DMSO (vehicle). Rat cortical neurons were isolated from E17 embryos, and seeded onto 96-well plates at a density of 7.5×10^4/well. At D.I.V. 10-11 culture maintenance media was replaced with treatment media (Modified Eagles Buffered Solution) without or with 25 μM Glucose. In addition, neurons were incubated with or without oxygen (induced by placement of cell plates in an anoxic chamber flushed with a gas mixture to remove oxygen). OGD injury was administered for 1 hour. […] Neuron viability was measured 24 hours post-injury by incubation with CellTiter Blue reagent (PROMEGA) for 3.5 hours. CellTiter Blue is metabolized into a fluorescent reagent only in living cells. The level of fluorescence (expressed as relative fluorescent units; RFU) was measured on a plate reader (PROMEGA).
Primary rat cortical neurons were grown onto 96-well plates. Neurons were injured by a 1 hour treatment with/without 25 μM glucose and with/without oxygen. DMSO or 75 μM AQ2S were added to OGD treatment media during the 1 h ischemic injury period. After 1 hour injury, cells were returned to regular growth media and normoxic culture conditions (i.e. 95% […]/5% CO2) with either DMSO or 75 μM AQ2S. Cell viability was measured 24 hours later and expressed as relative fluorescent units (RFU). […] Data were analyzed by ANOVA (p<0.0001); Fisher LSD post-hoc test. * indicates p<0.05. […]

[6] = system: primary rat cortical neurons; experiment: AQ2S alone on fluorescent and luminescent viability assays (luciferase interference); type: cell-based
Protocol: To test if AQ2S mediated inhibition of caspase3/7 was artifact, the effect of different AQ2S concentrations on 2 different cell viability tests were compared (one test fluorometric and the other luminescent). AQ2S was incubated at the indicated concentrations for 24 hours. After 24 hours, the cell viability reagent was added and cell survival assayed. […] Finally, to replicate the exact experimental conditions used in injury studies, neurons were first incubated with the CellTiter Blue reagent for 2 hours. Subsequently, the viability-GLO reagent was added for 1 hour and luminescence measured (i.e. viability reagents were mixed together; FIG. 11C).

[7] = system: primary rat cortical neurons; experiment: Stretch injury (in vitro TBI), LDH release and MTT metabolism; type: cell-based; conditions: 24 hours after injury
Protocol: Rat cortical neurons are isolated from E16 embryos, and plated on silicone membranes (with defined elastic properties) held in a custom made stainless steel chamber. DIV 7-9 neurons are subjected to a (computer controlled) preset stretch injury; strain rate 10 s^−1 and 50% membrane deformation. AQ2S or DMSO (vehicle control) was added before (pre-treatment) or after post-treatment) injury, Cell death was assayed ˜24 hours after injury by measuring 1) extracellular LDH in the culture media (released from dying/dead cells), 2) caspase-3/7 activation (a protease involved in execution of cell death), and 3) MTT metabolism (a reagent metabolized by living cells).
LDH is released by dying or injured cells. Primary rat cortical neurons were grown on a custom made stretch-injury device (An in vitro model of TBI). Neurons were pre-treated with 75 μM AQ2S or vehicle only (DMSO control) for 30 minutes, and subjected to a defined stretch injury. 24 hours after injury LDH levels were measured. […] Data was analyzed using a T-test; ***p<0.0001. […]
(3-(4,5-Dimethylthiazol-2-yl)-2,5-diphenyltetrazolium bromide; MTT) is metabolized in living but not dying cells. […] MTT metabolism was measured 24 hours after injury. […] Data was analyzed using ANOVA and Fisher LSD post-hoc test. […]

[8] = 150 nM STS 24 hours, co-treatment 75 μM

SMILES: O=C1c2ccccc2C(=O)c2cc(S(=O)(=O)O)ccc21 [AQ2S, anthraquinone-2-sulfonic acid]
- viability after glutamate injury [1]: significantly protects neurons from glutamate induced cell death
- caspase-8 activity [2]: significantly reduced baseline and injury activity levels
- STS injury, LDH release [3, 8]: significantly reduced 24 hour STS injury
- STS injury, cellular ATP levels (GLO-Viability Assay) [3, 8]: significantly reduced 24 hour STS injury
- STS injury, live-cell protease activity (CellTiter-Fluor) [3, 8]: significantly reduced 24 hour STS injury
- STS injury, resazurin metabolism (CellTiter Blue) [3, 8]: significantly reduced 24 hour STS injury
- reduction in viability compared with non-injured controls ([3]; 250 nM STS 24 hours, AQ2S-treated neurons): 17.6%
- cell death after STS ([3]; 250 nM STS 24 hours, co-treatment 75 or 125 μM): significantly reduced cell death
- cell viability, comparison of neuroprotectants ([3]; 250 nM STS co-administered 24 hours): increased cell viability
- neuronal viability, high dose STS ([3]; 500 nM STS 24 hours, co-treatment 125 μM and 150 μM): significantly (but only slightly) increased neuronal viability
- baseline viability or cytotoxicity ([3]; compound alone, no STS, 75 μM, 24 h): did not significantly alter baseline viability or cytotoxicity
- concentration of maximal protection ([3]; neuroprotection in neuron injury assays): 75 to 125 µM
- left hippocampal volume (% of uninjured right hippocampus) ([4]; 5 μL 500 μM intracerebroventricular 15 minutes and 24 hours after CCI, 3 days): not significantly (N.S.) different from Sham animals
- estimated final tissue AQ2S concentration ([4]; 5 μL of 500 μM icv, extrapolated from total CSF volume in mice (35 μL), unit of the source corrected): ~71 µM
- viability after ischemic (OGD) injury [5]: significantly increases viability
- decrease in luminescent signal compared to DMSO controls ([6]; CellTiter Blue and viability-GLO reagents combined): 13-17%
- viability, fluorometric CellTiter Blue assay ([6]; compound alone 24 hours, all concentrations used): none of the AQ2S concentrations used inhibited viability below control levels
- stretch injury induced LDH release (neuronal death) ([7]; 75 μM pre-treated 30 minutes): significantly reduced neuronal death
- MTT metabolism after stretch injury ([7]; 30 minutes before or 30 minutes after injury): increased by pre- or post-treatment with AQ2S
